Measurements: PubChem BioAssay AID256 (DTP/NCI, 2004)
Inconclusive results and toxic doses are left out. The calls were made as follows: active = survival T/C of 150% or more; inactive = T/C below 125% in these data.

System: CD2F1 mice, L1210 leukemia ip, survival T/C
Test: NCI In Vivo Anticancer Drug Screen. Data for tumor model L1210 Leukemia (intraperitoneal) in CD2F1 (CDF1) mice
Details: higher = longer survival
In short: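 Transplantable tumor in mice; compound-treated vs vehicle-treated groups. Read-out = treated/control ratio of the measured endpoint.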

[1] = endpoint: mean survival time, dose: 100.0 mg/kg/injection, schedule: Q04DX002 (ip), vehicle: saline with Tween-80
[2] = endpoint: mean survival time, dose: 400.0 mg/kg/injection, schedule: Q04DX002 (ip), vehicle: saline with Tween-80
[3] = endpoint: mean survival time, dose: 100.0 mg/kg/injection, schedule: Q01DX009 (ip), vehicle: saline with Tween-80
[4] = endpoint: mean survival time, dose: 200.0 mg/kg/injection, schedule: Q01DX009 (ip), vehicle: saline with Tween-80
[5] = endpoint: mean survival time, dose: 400.0 mg/kg/injection, schedule: Q01DX009 (ip), vehicle: saline with Tween-80
[6] = endpoint: mean survival time, dose: 100.0 mg/kg/injection, schedule: Q04DX003 (ip), vehicle: saline with Tween-80
[7] = endpoint: mean survival time, dose: 200.0 mg/kg/injection, schedule: Q04DX003 (ip), vehicle: saline with Tween-80
[8] = endpoint: mean survival time, dose: 100.0 mg/kg/injection, schedule: Q01DX001 (ip), vehicle: saline with Tween-80
[9] = endpoint: mean survival time, dose: 200.0 mg/kg/injection, schedule: Q01DX001 (ip), vehicle: saline with Tween-80
[10] = endpoint: mean survival time, dose: 400.0 mg/kg/injection, schedule: Q01DX001 (ip), vehicle: saline with Tween-80

Measured: T/C

COc1cc(NC(=O)Nc2cccc(Cl)c2)c(OC)cc1Cl
inactive: [1] 94 % of control | [2] 91 % of control

O=C(O)c1sc(C(=O)O)c(-c2ccccc2)c1-c1ccccc1
inactive: endpoint: mean survival time, dose: 100.0 mg/kg/injection, schedule: Q01DX009 (ip), vehicle: saline sonified 92 % of control | endpoint: mean survival time, dose: 200.0 mg/kg/injection, schedule: Q01DX009 (ip), vehicle: saline sonified 90 % of control | endpoint: mean survival time, dose: 400.0 mg/kg/injection, schedule: Q01DX009 (ip), vehicle: saline sonified 103 % of control

CCCCCC[Se][Se]CCCCCC
inactive: endpoint: median survival time, dose: 1.56 mg/kg/injection, schedule: Q01DX009 (ip), vehicle: Klucel (hydroxypropylcellulose) (HPC) 98 % of control | endpoint: median survival time, dose: 3.12 mg/kg/injection, schedule: Q01DX009 (ip), vehicle: Klucel (hydroxypropylcellulose) (HPC) 100 % of control | endpoint: median survival time, dose: 6.25 mg/kg/injection, schedule: Q01DX009 (ip), vehicle: Klucel (hydroxypropylcellulose) (HPC) 101 % of control | endpoint: median survival time, dose: 12.5 mg/kg/injection, schedule: Q01DX009 (ip), vehicle: Klucel (hydroxypropylcellulose) (HPC) 97 % of control

CCCCCCCCCSc1nc2ccccc2s1
inactive: [1] 87 % of control | endpoint: mean survival time, dose: 200.0 mg/kg/injection, schedule: Q04DX002 (ip), vehicle: saline with Tween-80 97 % of control | [2] 93 % of control

Cc1ccc([Si](C)(C)c2ccccc2)cc1
inactive: endpoint: mean survival time, dose: 75.0 mg/kg/injection, schedule: Q01DX001 (ip), vehicle: saline 97 % of control | endpoint: mean survival time, dose: 150.0 mg/kg/injection, schedule: Q01DX001 (ip), vehicle: saline 101 % of control

On1ccnc2nncc1-2
inactive: endpoint: mean survival time, dose: 11.3 mg/kg/injection, schedule: Q01DX005 (ip), vehicle: other 104 % of control | endpoint: mean survival time, dose: 22.5 mg/kg/injection, schedule: Q01DX005 (ip), vehicle: other 104 % of control | endpoint: mean survival time, dose: 45.0 mg/kg/injection, schedule: Q01DX005 (ip), vehicle: other 101 % of control | endpoint: mean survival time, dose: 90.0 mg/kg/injection, schedule: Q01DX005 (ip), vehicle: other 97 % of control | endpoint: mean survival time, dose: 180.0 mg/kg/injection, schedule: Q01DX005 (ip), vehicle: other 93 % of control | endpoint: mean survival time, dose: 200.0 mg/kg/injection, schedule: Q01DX005 (ip), vehicle: other 102 % of control | endpoint: mean survival time, dose: 400.0 mg/kg/injection, schedule: Q01DX005 (ip), vehicle: other 106 % of control

O=C1c2ccccc2C(=O)c2c(Sc3ccccc3)cccc21
inactive: [3] 97 % of control | [4] 93 % of control | [5] 92 % of control

O=S(=O)(CCBr)CCBr
inactive: [3] 95 % of control | [6] 109 % of control | [4] 86 % of control | [7] 107 % of control | [5] 100 % of control | endpoint: mean survival time, dose: 400.0 mg/kg/injection, schedule: Q04DX003 (ip), vehicle: saline with Tween-80 88 % of control

N#CC(O)c1ccc([N+](=O)[O-])cc1 (stereo not drawn)
inactive: endpoint: mean survival time, dose: 1.25 mg/kg/injection, schedule: Q04DX002 (ip), vehicle: saline with Tween-80 101 % of control | endpoint: mean survival time, dose: 2.5 mg/kg/injection, schedule: Q04DX002 (ip), vehicle: saline with Tween-80 101 % of control | endpoint: mean survival time, dose: 5.0 mg/kg/injection, schedule: Q04DX002 (ip), vehicle: saline with Tween-80 101 % of control | endpoint: mean survival time, dose: 10.0 mg/kg/injection, schedule: Q04DX002 (ip), vehicle: saline with Tween-80 97 % of control

NC1=C(Br)C(=O)C(=O)c2ccccc21
inactive: [8] 101 % of control | [9] 101 % of control | [10] 97 % of control

CON(C)C(=O)N1c2ccccc2Sc2ccccc21
inactive: [6] 87 % of control | [7] 87 % of control

Cc1ccc(S(=O)(=O)OC2C3OCC(O3)C3OC(C)OC32)cc1 (stereo not drawn)
inactive: [3] 92 % of control | [4] 95 % of control | [5] 95 % of control

COC(=O)CC1(C(=O)OC)Nc2ccc(Br)cc2C(=O)O1 (stereo not drawn)
inactive: [8] 96 % of control | [9] 96 % of control | [10] 94 % of control

CNc1ccccc1CO
inactive: endpoint: mean survival time, dose: 100.0 mg/kg/injection, schedule: Q01DX009 (ip), vehicle: other 107 % of control | endpoint: mean survival time, dose: 200.0 mg/kg/injection, schedule: Q01DX009 (ip), vehicle: other 97 % of control | endpoint: mean survival time, dose: 400.0 mg/kg/injection, schedule: Q01DX009 (ip), vehicle: other 103 % of control
